Columns and labels:
[1] = molecular target: Delta-type opioid receptor (Homo sapiens, UniProt P41143); format: cell membranes, HEK293, Membrane; details: hek293; note: in other assays of this panel Not Active means under 50% inhibition at 10 µM
[2] = molecular target: Mu-type opioid receptor (Homo sapiens, UniProt P35372); assay: DRUGMATRIX: Opiate mu (OP3, MOP) radioligand binding (ligand: [3H] Diprenorphine); format: cell membranes, CHO-K1, Membrane; details: cho-k1; Not Active = under 50% inhibition at 10 µM
Chain of Mu-type opioid receptor (P35372 whole entry): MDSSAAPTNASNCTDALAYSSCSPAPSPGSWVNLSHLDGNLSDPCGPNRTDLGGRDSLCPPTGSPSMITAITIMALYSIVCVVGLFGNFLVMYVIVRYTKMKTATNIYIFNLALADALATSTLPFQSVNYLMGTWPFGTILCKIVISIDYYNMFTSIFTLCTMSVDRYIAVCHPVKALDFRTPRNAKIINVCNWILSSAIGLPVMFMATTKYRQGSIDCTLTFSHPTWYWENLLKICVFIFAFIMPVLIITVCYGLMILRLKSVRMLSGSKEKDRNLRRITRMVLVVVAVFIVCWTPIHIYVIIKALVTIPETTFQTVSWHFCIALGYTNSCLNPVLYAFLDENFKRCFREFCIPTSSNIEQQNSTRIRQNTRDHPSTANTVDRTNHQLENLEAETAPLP

[3] = DRUGMATRIX: beta-Lactamase enzyme inhibition (substrate: Nitrocefin); set-up: species or system Bacillus cereus; details: Not Active = under 50% inhibition at 10 µM
[4] = molecular target: Tyrosine-protein kinase Fyn (Homo sapiens, UniProt P06241); assay: biochemical; format: cell-based, Insect cells; details: insect cells;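 note: enzymatic inhibition of Fyn kinase activity measured with Poly(Glu:Tyr) as the phosphorylation substrate; in other assays of this panel Not Active means under 50% inhibition at 10 µM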
Chain of Tyrosine-protein kinase Fyn (P06241 whole entry): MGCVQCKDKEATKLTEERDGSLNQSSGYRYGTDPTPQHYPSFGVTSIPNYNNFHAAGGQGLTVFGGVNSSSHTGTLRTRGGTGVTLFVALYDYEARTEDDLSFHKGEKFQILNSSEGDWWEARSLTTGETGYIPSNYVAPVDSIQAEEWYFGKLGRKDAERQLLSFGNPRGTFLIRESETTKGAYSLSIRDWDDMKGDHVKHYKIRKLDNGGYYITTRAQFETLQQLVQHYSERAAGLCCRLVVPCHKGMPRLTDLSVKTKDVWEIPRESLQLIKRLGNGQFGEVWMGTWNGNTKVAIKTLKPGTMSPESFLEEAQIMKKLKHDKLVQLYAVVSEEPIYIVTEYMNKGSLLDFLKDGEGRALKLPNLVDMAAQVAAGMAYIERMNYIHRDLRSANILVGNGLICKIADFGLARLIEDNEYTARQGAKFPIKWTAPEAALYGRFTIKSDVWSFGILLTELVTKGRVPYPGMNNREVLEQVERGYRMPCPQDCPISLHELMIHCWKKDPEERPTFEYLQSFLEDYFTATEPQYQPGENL

[5] = molecular target: Receptor tyrosine-protein kinase erbB-2 (Homo sapiens, UniProt P04626); assay: biochemical; format: cell-based, Insect cells; details: insect cells;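 note: inhibition of HER2 kinase enzyme activity, measured with Poly(Glu:Tyr) as the phosphorylation substrate; in other assays of this panel Not Active means under 50% inhibition at 10 µM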
Chain of Receptor tyrosine-protein kinase erbB-2 (P04626 whole entry): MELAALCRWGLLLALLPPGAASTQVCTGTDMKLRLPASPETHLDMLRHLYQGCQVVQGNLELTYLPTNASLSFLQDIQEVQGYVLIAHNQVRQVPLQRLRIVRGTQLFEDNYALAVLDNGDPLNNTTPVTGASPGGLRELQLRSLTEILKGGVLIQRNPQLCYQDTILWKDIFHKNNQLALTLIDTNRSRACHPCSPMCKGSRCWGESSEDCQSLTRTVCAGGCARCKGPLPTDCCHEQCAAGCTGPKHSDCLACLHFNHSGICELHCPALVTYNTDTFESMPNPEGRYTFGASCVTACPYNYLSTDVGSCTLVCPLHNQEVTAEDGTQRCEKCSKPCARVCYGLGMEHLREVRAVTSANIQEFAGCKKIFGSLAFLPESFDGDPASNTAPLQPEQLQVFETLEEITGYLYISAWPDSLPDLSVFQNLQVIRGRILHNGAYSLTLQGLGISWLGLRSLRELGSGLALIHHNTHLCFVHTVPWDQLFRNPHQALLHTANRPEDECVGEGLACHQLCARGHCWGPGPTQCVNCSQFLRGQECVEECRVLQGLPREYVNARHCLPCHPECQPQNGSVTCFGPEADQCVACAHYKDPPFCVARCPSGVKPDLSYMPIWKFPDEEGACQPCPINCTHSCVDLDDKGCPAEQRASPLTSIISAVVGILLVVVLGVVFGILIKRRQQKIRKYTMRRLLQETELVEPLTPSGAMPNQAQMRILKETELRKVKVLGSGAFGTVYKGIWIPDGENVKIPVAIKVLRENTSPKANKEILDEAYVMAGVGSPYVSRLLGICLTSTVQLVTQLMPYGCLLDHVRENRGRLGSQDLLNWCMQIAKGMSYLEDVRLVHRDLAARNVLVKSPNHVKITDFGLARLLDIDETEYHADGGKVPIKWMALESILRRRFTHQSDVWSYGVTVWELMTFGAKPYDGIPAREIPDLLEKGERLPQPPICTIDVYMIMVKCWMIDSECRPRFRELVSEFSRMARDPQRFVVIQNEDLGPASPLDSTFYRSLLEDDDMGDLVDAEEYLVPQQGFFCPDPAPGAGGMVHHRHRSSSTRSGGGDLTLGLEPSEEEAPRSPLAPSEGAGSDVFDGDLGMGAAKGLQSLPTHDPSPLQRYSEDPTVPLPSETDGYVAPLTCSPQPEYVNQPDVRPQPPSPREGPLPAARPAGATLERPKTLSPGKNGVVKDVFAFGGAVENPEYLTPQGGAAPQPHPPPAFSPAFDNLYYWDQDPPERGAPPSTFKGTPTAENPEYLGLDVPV

[6] = molecular target: T1, Adenosine receptor A1 (Homo sapiens, UniProt P30542); format: cell membranes, CHO, Membrane; details: cho;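 note: radioligand binding assay at the adenosine A1 receptor, with DPCPX serving as the labelled ligand; in other assays of this panel Not Active means under 50% inhibition at 10 µM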
T1 sequence (P30542 whole entry): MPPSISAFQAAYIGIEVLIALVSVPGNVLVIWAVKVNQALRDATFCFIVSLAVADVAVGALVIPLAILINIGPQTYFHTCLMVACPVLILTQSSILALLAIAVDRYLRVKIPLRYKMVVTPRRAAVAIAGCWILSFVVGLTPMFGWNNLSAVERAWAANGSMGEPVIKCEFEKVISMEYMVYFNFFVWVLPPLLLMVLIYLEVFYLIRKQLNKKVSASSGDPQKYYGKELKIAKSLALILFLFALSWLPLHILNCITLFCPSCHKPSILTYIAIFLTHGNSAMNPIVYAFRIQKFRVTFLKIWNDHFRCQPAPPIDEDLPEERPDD

[7] = molecular target: T2, 3-hydroxy-3-methylglutaryl-coenzyme A reductase (Homo sapiens, UniProt P04035); set-up: species or system Escherichia coli
T2 sequence (P04035 whole entry): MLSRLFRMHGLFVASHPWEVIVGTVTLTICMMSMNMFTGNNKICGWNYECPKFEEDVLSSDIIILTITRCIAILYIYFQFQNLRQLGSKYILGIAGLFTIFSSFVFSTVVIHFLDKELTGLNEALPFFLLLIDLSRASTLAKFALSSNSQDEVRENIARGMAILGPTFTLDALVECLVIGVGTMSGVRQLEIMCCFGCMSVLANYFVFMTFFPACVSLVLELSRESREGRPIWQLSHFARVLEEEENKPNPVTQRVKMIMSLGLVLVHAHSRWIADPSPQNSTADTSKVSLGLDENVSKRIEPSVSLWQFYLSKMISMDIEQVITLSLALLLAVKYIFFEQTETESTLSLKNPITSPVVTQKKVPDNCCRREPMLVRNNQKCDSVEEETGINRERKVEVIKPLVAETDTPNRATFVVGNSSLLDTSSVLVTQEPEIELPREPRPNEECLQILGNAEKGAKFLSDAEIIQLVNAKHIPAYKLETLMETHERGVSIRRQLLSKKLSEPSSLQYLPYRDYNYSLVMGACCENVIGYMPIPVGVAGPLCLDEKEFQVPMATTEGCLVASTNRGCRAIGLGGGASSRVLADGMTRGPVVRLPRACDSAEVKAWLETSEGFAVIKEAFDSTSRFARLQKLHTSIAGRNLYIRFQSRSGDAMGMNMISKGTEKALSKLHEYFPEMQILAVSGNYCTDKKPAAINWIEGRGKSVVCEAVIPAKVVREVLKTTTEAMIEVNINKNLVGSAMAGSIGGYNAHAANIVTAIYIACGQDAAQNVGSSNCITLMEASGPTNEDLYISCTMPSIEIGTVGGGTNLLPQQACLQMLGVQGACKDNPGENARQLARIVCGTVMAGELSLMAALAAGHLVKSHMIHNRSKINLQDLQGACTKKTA

[8] = molecular target: Matrix metalloproteinase-9 (Homo sapiens, UniProt P14780); format: cell-based
Chain of Matrix metalloproteinase-9 (P14780 whole entry): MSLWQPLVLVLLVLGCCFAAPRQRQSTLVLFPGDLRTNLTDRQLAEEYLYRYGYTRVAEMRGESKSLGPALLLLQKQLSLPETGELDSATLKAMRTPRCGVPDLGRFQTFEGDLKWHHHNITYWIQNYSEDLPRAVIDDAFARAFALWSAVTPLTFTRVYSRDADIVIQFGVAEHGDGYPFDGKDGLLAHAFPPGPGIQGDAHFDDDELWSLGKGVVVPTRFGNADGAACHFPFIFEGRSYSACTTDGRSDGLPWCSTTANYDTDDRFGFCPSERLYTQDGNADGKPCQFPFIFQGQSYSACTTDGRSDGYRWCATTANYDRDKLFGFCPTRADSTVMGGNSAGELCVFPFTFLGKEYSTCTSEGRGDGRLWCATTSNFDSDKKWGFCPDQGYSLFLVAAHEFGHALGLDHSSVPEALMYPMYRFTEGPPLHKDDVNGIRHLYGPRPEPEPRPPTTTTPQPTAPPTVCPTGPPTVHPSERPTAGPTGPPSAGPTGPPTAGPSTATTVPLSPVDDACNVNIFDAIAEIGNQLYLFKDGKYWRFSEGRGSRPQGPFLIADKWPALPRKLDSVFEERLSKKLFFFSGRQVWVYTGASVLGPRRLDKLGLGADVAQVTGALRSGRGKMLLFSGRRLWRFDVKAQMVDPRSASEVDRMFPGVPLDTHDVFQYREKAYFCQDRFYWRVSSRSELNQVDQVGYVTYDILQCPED

[9] = molecular target: 5-hydroxytryptamine receptor 4 (Cavia porcellus, UniProt O70528); format: cell membranes, Dunkin-Hartley, Striatum, Membrane; note: in other assays of this panel Not Active means under 50% inhibition at 10 µM
Chain of 5-hydroxytryptamine receptor 4 (O70528 whole entry): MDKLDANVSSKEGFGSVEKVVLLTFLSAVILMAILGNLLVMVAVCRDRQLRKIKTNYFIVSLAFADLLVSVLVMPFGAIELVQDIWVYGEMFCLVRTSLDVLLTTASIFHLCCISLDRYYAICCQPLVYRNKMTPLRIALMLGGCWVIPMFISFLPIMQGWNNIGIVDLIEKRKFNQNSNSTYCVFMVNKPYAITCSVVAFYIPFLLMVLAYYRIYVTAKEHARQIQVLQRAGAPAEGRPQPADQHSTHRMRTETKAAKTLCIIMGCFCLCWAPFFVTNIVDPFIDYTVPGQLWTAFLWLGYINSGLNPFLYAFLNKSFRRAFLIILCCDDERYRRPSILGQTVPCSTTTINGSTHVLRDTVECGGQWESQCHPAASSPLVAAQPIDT

[10] = molecular target: T3, Amine oxidase [flavin-containing] A (Homo sapiens, UniProt P21397); assay: DRUGMATRIX: Monoamine Oxidase MAO-A enzyme inhibition (substrate: Kynuramine); set-up: species or system BTI-TN-5B1-4; details: bti-tn-5b1-4; Not Active = under 50% inhibition at 10 µM
T3 sequence (P21397 whole entry): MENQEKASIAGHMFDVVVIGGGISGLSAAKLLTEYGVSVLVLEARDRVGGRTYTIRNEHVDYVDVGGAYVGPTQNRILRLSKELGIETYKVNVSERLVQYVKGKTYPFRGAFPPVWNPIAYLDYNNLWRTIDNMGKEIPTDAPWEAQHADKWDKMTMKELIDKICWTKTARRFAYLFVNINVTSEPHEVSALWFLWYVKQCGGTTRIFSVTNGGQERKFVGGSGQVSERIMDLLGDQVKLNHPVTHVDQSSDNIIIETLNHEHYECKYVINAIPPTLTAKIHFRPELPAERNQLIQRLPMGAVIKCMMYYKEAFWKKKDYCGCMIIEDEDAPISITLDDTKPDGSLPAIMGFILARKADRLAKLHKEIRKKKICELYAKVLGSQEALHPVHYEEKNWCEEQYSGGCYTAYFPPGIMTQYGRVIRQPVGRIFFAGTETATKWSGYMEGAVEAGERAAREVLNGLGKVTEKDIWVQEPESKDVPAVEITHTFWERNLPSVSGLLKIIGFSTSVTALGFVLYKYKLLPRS

[11] = molecular target: 5-hydroxytryptamine receptor 6 (Homo sapiens, UniProt P50406); format: cell membranes, HeLa, Membrane; details: hela; note: in other assays of this panel Not Active means under 50% inhibition at 10 µM
Chain of 5-hydroxytryptamine receptor 6 (P50406 whole entry): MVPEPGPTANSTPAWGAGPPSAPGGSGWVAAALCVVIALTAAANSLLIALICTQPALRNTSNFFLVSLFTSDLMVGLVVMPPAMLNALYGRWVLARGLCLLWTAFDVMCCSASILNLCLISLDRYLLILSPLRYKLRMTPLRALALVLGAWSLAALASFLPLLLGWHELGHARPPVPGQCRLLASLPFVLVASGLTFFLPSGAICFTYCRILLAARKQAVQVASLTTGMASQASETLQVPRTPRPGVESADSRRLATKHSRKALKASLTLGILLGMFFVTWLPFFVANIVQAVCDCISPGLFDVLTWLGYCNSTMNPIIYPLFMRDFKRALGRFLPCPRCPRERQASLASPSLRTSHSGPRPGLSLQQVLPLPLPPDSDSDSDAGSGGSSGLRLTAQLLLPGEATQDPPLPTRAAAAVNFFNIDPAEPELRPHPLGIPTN

[12] = molecular target: T4, Cholecystokinin receptor type A (Homo sapiens, UniProt P32238); format: cell membranes, Membrane; details: 1321-n1; note: in other assays of this panel Not Active means under 50% inhibition at 10 µM
T4 sequence (P32238 whole entry): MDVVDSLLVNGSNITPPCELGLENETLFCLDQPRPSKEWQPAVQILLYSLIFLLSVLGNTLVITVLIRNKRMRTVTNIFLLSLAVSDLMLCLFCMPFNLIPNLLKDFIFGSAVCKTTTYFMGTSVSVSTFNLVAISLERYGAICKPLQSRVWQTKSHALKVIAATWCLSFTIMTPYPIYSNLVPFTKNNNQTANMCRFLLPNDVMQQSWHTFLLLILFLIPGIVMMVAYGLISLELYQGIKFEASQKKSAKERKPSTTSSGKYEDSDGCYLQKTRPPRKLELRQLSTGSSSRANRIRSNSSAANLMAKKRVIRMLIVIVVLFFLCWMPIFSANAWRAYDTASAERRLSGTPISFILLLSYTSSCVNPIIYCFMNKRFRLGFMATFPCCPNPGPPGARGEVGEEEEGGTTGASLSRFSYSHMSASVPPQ

Chain of Delta-type opioid receptor (P41143 whole entry): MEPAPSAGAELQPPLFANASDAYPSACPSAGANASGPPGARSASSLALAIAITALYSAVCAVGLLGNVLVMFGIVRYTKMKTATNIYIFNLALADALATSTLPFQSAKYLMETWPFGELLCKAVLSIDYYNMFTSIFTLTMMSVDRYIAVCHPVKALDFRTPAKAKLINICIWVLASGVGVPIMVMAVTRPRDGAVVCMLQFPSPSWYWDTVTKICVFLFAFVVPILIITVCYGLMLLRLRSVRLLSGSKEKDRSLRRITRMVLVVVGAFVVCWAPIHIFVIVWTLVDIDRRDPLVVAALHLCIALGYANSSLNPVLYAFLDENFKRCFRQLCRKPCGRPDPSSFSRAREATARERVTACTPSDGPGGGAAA

CC(=O)S[C@@H]1CC2=CC(=O)CC[C@]2(C)[C@H]2CC[C@@]3(C)[C@@H](CC[C@@]34CCC(=O)O4)[C@H]12 [SPIRONOLACTONE]
Not Active: IC50 [1] | IC50 [2] | IC50 [3] | Ki [3] | IC50 [4] | IC50 [5] | IC50 [6] | IC50 [7] | IC50 [8] | IC50 [9] | IC50 [10] | IC50 [11] | IC50 [12]

C[C@]12Cc3c[nH]nc3C[C@@H]1CC[C@@H]1[C@@H]2CC[C@@]2(C)[C@H]1CC[C@]2(C)O [STANOZOLOL]
Not Active: IC50 [1] | IC50 [2] | IC50 [3] | Ki [3] | IC50 [4] | IC50 [5] | IC50 [6] | IC50 [7] | IC50 [8] | IC50 [9] | IC50 [10] | IC50 [11] | IC50 [12]

CN(N=O)C(=O)N[C@@H](C=O)[C@@H](O)[C@H](O)[C@H](O)CO [STREPTOZOCIN]
Not Active: IC50 [1] | IC50 [2] | IC50 [3] | Ki [3] | IC50 [4] | IC50 [5] | IC50 [6] | IC50 [7] | IC50 [8] | IC50 [9] | IC50 [10] | IC50 [11] | IC50 [12]

Cc1cc(NS(=O)(=O)c2ccc(N)cc2)no1 [SULFAMETHOXAZOLE]
Not Active: IC50 [1] | IC50 [2] | IC50 [3] | Ki [3] | IC50 [4] | IC50 [5] | IC50 [6] | IC50 [7] | IC50 [8] | IC50 [9] | IC50 [10] | IC50 [11] | IC50 [12]

Nc1ccc(S(N)(=O)=O)cc1 [SULFANILAMIDE]
Not Active: IC50 [1] | IC50 [2] | IC50 [3] | Ki [3] | IC50 [4] | IC50 [5] | IC50 [6] | IC50 [7] | IC50 [8] | IC50 [9] | IC50 [10] | IC50 [11] | IC50 [12]

Nc1ccc(S(=O)(=O)Nc2ccnn2-c2ccccc2)cc1 [SULFAPHENAZOLE]
Not Active: IC50 [1] | IC50 [2] | IC50 [3] | Ki [3] | IC50 [4] | IC50 [5] | IC50 [6] | IC50 [7] | IC50 [8] | IC50 [9] | IC50 [10] | IC50 [11] | IC50 [12]

C=CC[C@@H]1/C=C(\C)C[C@H](C)C[C@H](OC)[C@H]2O[C@@](O)(C(=O)C(=O)N3CCCC[C@H]3C(=O)O[C@H](/C(C)=C/[C@@H]3CC[C@@H](O)[C@H](OC)C3)[C@H](C)[C@@H](O)CC1=O)[C@H](C)C[C@@H]2OC [TACROLIMUS ANHYDROUS]
Not Active: IC50 [1] | IC50 [2] | IC50 [3] | Ki [3] | IC50 [4] | IC50 [5] | IC50 [6] | IC50 [7] | IC50 [8] | IC50 [9] | IC50 [10] | IC50 [11] | IC50 [12]

CC1CN(c2cc3c(cc2F)c(=O)c(C(=O)O)cn3-c2ccc(F)cc2F)CCN1 (centres undefined) [TEMAFLOXACIN]
Not Active: IC50 [1] | IC50 [2] | IC50 [3] | Ki [3] | IC50 [4] | IC50 [5] | IC50 [6] | IC50 [7] | IC50 [8] | IC50 [9] | IC50 [10] | IC50 [11] | IC50 [12]

From ChEMBL document CHEMBL1909046, “DrugMatrix in vitro pharmacology data”
